By IC50 is commonly meant the concentration that inhibits the measured activity by half.

This note sets out measurements from patent US10294246B2, “Substituted boronic acids and boronate esters as immunoproteasome inhibitors” (MERCK PATENT GMBH, priority 2014, dated 2019).

Assay [1] concerns the target human immunoproteasome (LMP7) (Homo sapiens (Human), UniProt P28062). In words: Determination of LMP7 activity (fluorescence intensity assay, Suc-LLVY-AMC). It counts as biochemical. The settings on record: for Selectivity LMP7 vs Beta5: LMP7 versus Beta5; for IC50: purified human immunoproteasome 0.25 nM, Suc-LLVY-AMC 40 μM. The protocol: Determination of LMP7 Activity:
Measurement of LMP7 inhibition is performed in 384 well format based on fluorescence intensity assay.
Purified human immunoproteasome (0.25 nM) and serial diluted compounds in DMSO (range of concentrations from 30 μM to […]) or controls are incubated for 20 minutes at 25° C. in assay buffer containing 50 mM Tris pH 7.4, 0.03% SDS, 1 mM EDTA and 1% DMSO. The reaction is initiated by the addition of the fluorogenic peptide substrate, Suc-LLVY-AMC (Bachem 1-1395), at a concentration of 40 μM. After 60 minutes of incubation at 37° C., fluorescence intensity is measured at λex=350 nm and λem=450 nm with a fluorescence reader (Perkin Elmer Envision reader or equivalent).

Assay [2] concerns the target human constitutive proteasome (Beta5) (Homo sapiens (Human), UniProt P28074). In words: Determination of Beta5 activity (fluorescence intensity assay, Suc-LLVY-AMC). It counts as biochemical. As to conditions: purified human constitutive proteasome 1.25 nM, Suc-LLVY-AMC 40 μM. The protocol:
Determination of Beta5 Activity:
Measurement of Beta5 inhibition is performed in 384 well format based on fluorescence intensity assay.
Purified human constitutive proteasome (1.25 nM) and serial diluted compounds in DMSO (range of concentrations from 30 μM to […]) or controls are incubated for 20 minutes at 25° C. in assay buffer containing 50 mM Tris pH 7.4, 0.03% SDS, 1 mM EDTA and 1% DMSO. The reaction is initiated by the addition of the fluorogenic peptide substrate, Suc-LLVY-AMC (Bachem 1-1395), at a concentration of 40 μM. After 60 minutes of incubation at 37° C., fluorescence intensity is measured at λex=350 nm and λem=450 nm with a fluorescence reader (Perkin Elmer Envision reader or equivalent).

Take `COCc1ccccc1CC(=O)N[C@@H](Cc1coc2ccccc12)B(O)O` [Compound No. 48, [(1R)-2-(benzofuran-3-yl)-1-[[2-[2-(methoxymethyl)phenyl]acetyl]-amino]ethyl]boronic acid]: in assay [1], the “Selectivity LMP7 vs Beta5” value is reported as “+++++ (Selectivity ≥ 100)” and the IC50 was less than 50 nM. In assay [2], this molecule registered a concentration for half-maximal inhibition (IC50) of 500 to 5000 nM.

For the molecule `COCc1cccc(CC(=O)N[C@@H](Cc2coc3ccccc23)B(O)O)c1` [Compound No. 49, [(1R)-2-(benzofuran-3-yl)-1-[[2-[3-(methoxymethyl)phenyl]acetyl]-amino]ethyl]boronic acid], the “Selectivity LMP7 vs Beta5” value in assay [1] is recorded as “+++++ (Selectivity ≥ 100)”. In addition, the IC50 in assay [1] was less than 50 nM; in assay [2], 50 to 500 nM.

Turning to `O=C(Cc1ccccc1OCCO)N[C@@H](Cc1coc2ccccc12)B(O)O` [Compound No. 50, [(1R)-2-(benzofuran-3-yl)-1-[[2-[2-(2-hydroxyethoxy)phenyl]acetyl]-amino]ethyl]boronic acid], the “Selectivity LMP7 vs Beta5” value in assay [1] is given as “+++ (50 ≤ Selectivity < 70)”. Also, the IC50 in assay [1] is less than 50 nM; in assay [2], 500 to 5000 nM.

As for `COc1ccc(C(F)(F)C(=O)N[C@@H](Cc2coc3ccccc23)B(O)O)cc1` [Compound No. 51, [(1R)-2-(benzofuran-3-yl)-1-[[2,2-difluoro-2-(4-methoxyphenyl)acetyl]-amino]ethyl]boronic acid], in assay [1], the “Selectivity LMP7 vs Beta5” value is “+++++ (Selectivity ≥ 100)”. The same molecule came in with a 50% inhibitory concentration (IC50) in assay [2] of 500 to 5000 nM.

Consider `COc1cc(CC(=O)N[C@@H](Cc2coc3ccccc23)B(O)O)cc(OC)c1OC` [Compound No. 52, [(1R)-2-(benzofuran-3-yl)-1-[[2-(3,4,5-trimethoxyphenyl)acetyl]amino]-ethyl]boronic acid], for which, in assay [1], the “Selectivity LMP7 vs Beta5” value is “++ (10 ≤ Selectivity < 50)” and the 50% inhibitory concentration (IC50) is less than 50 nM. The same molecule returned an IC50 in assay [2] of 50 to 500 nM.

In the case of `Cc1ccc(C[C@H](NC(=O)Cc2ccc(NC(=O)C(F)(F)F)cc2)B(O)O)c(C)c1` [Compound No. 53, [(1R)-2-(2,4-dimethylphenyl)-1-[[2-[4-[(2,2,2-trifluoroacetyl)amino]-phenyl]acetyl]amino]ethyl]boronic acid], the “Selectivity LMP7 vs Beta5” value in assay [1] is on record as “++ (10 ≤ Selectivity < 50)”. Further, the values for the concentration for half-maximal inhibition (IC50) in assay [1] and in assay [2] were less than 50 nM and 500 to 5000 nM, respectively.

In the case of `O=C(Cc1ccccc1OC1CCOCC1)N[C@@H](Cc1coc2ccccc12)B(O)O` [Compound No. 54, [(1R)-2-(benzofuran-3-yl)-1-[[2-(2-tetrahydropyran-4-yloxyphenyl)-acetyl]amino]ethyl]boronic acid], in assay [1], the “Selectivity LMP7 vs Beta5” value was “+++++ (Selectivity ≥ 100)” and the IC50 is less than 50 nM. The molecule further yielded a half-maximal inhibitory concentration (IC50) in assay [2] of 50 to 500 nM.

Regarding `O=C(Cc1ccccc1OCCCO)N[C@@H](Cc1coc2ccccc12)B(O)O` [Compound No. 55, [(1R)-2-(benzofuran-3-yl)-1-[[2-[2-(3-hydroxypropoxy)phenyl]acetyl]-amino]ethyl]boronic acid], in assay [1], the “Selectivity LMP7 vs Beta5” value is “++++ (70 ≤ Selectivity < 100)” and the IC50 was less than 50 nM. In addition, in assay [2], the IC50 was 500 to 5000 nM.

In the case of `O=C(N[C@H](Cc1coc2ccccc12)B(O)O)[C@H](CO)c1ccccc1` [Compound No. 56, [(1S)-2-(benzofuran-3-yl)-1-[[(2S)-3-hydroxy-2-phenyl-propanoyl]-amino]ethyl]boronic acid], in assay [1], the “Selectivity LMP7 vs Beta5” value is “+++++ (Selectivity ≥ 100)” and the IC50 fell in the range of 50 to 500 nM. Besides, in assay [2], the IC50 is greater than 5000 nM.

`O=C(N[C@@H](Cc1coc2ccccc12)B(O)O)[C@H](CO)c1ccccc1` [Compound No. 57, [(1R)-2-(benzofuran-3-yl)-1-[[(2S)-3-hydroxy-2-phenyl-propanoyl]-amino]ethyl]boronic acid]: in assay [1], the “Selectivity LMP7 vs Beta5” value is recorded as “+++++ (Selectivity ≥ 100)” and the half-maximal inhibitory concentration (IC50) was less than 50 nM. Moreover, the IC50 in assay [2] lay within 500 to 5000 nM.

For the molecule `COc1ccc(OC)c(CC(=O)N[C@@H](Cc2coc3ccccc23)B(O)O)c1` [Compound No. 58, [(1R)-2-(benzofuran-3-yl)-1-[[2-(2,5-dimethoxyphenyl)acetyl]amino]-ethyl]boronic acid], in assay [1], the “Selectivity LMP7 vs Beta5” value is on record as “++++ (70 ≤ Selectivity < 100)” and the half-inhibitory concentration (IC50) was less than 50 nM. The molecule also came in with an IC50 in assay [2] of 50 to 500 nM.

`O=C(N[C@@H](Cc1coc2ccccc12)B(O)O)[C@@H](CO)c1ccccc1` [Compound No. 59, [(1R)-2-(benzofuran-3-yl)-1-[[(2R)-3-hydroxy-2-phenyl-propanoyl]-amino]ethyl]boronic acid]: in assay [1], the “Selectivity LMP7 vs Beta5” value is recorded as “++++ (70 ≤ Selectivity < 100)” and the concentration for half-maximal inhibition (IC50) is less than 50 nM. For the same molecule, the IC50 in assay [2] was in the range of 50 to 500 nM.

On to `COc1ccc(CC(=O)N[C@@H](Cc2coc3ccccc23)B(O)O)c(OC)c1OC` [Compound No. 60, [(1R)-2-(benzofuran-3-yl)-1-[[2-(2,3,4-trimethoxyphenyl)acetyl]amino]-ethyl]boronic acid], for which, in assay [1], the “Selectivity LMP7 vs Beta5” value was “++++ (70 ≤ Selectivity < 100)” and the 50% inhibitory concentration (IC50) was less than 50 nM. In assay [2], this molecule returned an IC50 of 50 to 500 nM.

Turning to `O=C(Cc1ccccc1OCCCO)N[C@H](Cc1coc2ccccc12)B(O)O` [Compound No. 61, [(1S)-2-(benzofuran-3-yl)-1-[[2-[2-(3-hydroxypropoxy)phenyl]acetyl]-amino]ethyl]boronic acid], in assay [1], the “Selectivity LMP7 vs Beta5” value is on record as “+++++ (Selectivity ≥ 100)”. The figures for the IC50 in assay [1] and in assay [2] were 50 to 500 nM and greater than 5000 nM, respectively.

With `O=C(N[C@H](Cc1coc2ccccc12)B(O)O)[C@@H](CO)c1ccccc1` [Compound No. 62, [(1S)-2-(benzofuran-3-yl)-1-[[(2R)-3-hydroxy-2-phenyl-propanoyl]-amino]ethyl]boronic acid], in assay [1], the “Selectivity LMP7 vs Beta5” value is on record as “+++++ (Selectivity ≥ 100)” and the IC50 is less than 50 nM. In assay [2], this molecule had a 50% inhibitory concentration (IC50) of 500 to 5000 nM.

Take `O=C(Cc1ccccc1C(=O)N1CCOCC1)N[C@@H](Cc1coc2ccccc12)B(O)O` [Compound No. 63, [(1R)-2-(benzofuran-3-yl)-1-[[2-[2-(morpholine-4-carbonyl)phenyl]-acetyl]amino]ethyl]boronic acid]: in assay [1], the “Selectivity LMP7 vs Beta5” value is “+++++ (Selectivity ≥ 100)” and the 50% inhibitory concentration (IC50) was less than 50 nM. The same molecule came in with an IC50 in assay [2] of 500 to 5000 nM.

Regarding `O=C(Cc1ccc(N2CCCC2=O)cc1)N[C@@H](Cc1coc2ccccc12)B(O)O` [Compound No. 64, [(1R)-2-(benzofuran-3-yl)-1-[[2-[4-(2-oxopyrrolidin-1-yl)phenyl]acetyl]-amino]ethyl]boronic acid], in assay [1], the “Selectivity LMP7 vs Beta5” value was “+++ (50 ≤ Selectivity < 70)” and the IC50 was less than 50 nM. Moreover, in assay [2], the half-maximal inhibitory concentration (IC50) fell in the range of 50 to 500 nM.

In the case of `CCNC(=O)c1ccccc1CC(=O)N[C@@H](Cc1coc2ccccc12)B(O)O` [Compound No. 65, [(1R)-2-(benzofuran-3-yl)-1-[[2-[2-(ethylcarbamoyl)phenyl]acetyl]-amino]ethyl]boronic acid], in assay [1], the “Selectivity LMP7 vs Beta5” value is given as “++++ (70 ≤ Selectivity < 100)” and the half-inhibitory concentration (IC50) is less than 50 nM. The molecule further gave an IC50 in assay [2] of 500 to 5000 nM.

Regarding `CN(C)C(=O)c1ccccc1CC(=O)N[C@@H](Cc1coc2ccccc12)B(O)O` [Compound No. 66, [(1R)-2-(benzofuran-3-yl)-1-[[2-[2-(dimethylcarbamoyl)phenyl]acetyl]-amino]ethyl]boronic acid], in assay [1], the “Selectivity LMP7 vs Beta5” value is reported as “+++++ (Selectivity ≥ 100)”. Besides, the figures for the IC50 in assay [1] and in assay [2] were less than 50 nM and 500 to 5000 nM, respectively.

With `O=C(Cc1ccc(-c2ccccc2)cc1)N[C@@H](Cc1coc2ccccc12)B(O)O` [Compound No. 67, [(1R)-2-(benzofuran-3-yl)-1-[[2-(4-phenylphenyl)acetyl]amino]ethyl]-boronic acid], in assay [1], the “Selectivity LMP7 vs Beta5” value was “++ (10 ≤ Selectivity < 50)” and the concentration for half-maximal inhibition (IC50) was less than 50 nM. The IC50 in assay [2] is 500 to 5000 nM.

In the case of `O=C(N[C@@H](Cc1coc2ccccc12)B(O)O)C(c1ccccc1)c1ccccc1` [Compound No. 68, [(1R)-2-(benzofuran-3-yl)-1-[(2,2-diphenylacetyl)amino]ethyl]boronic acid], in assay [1], the “Selectivity LMP7 vs Beta5” value was “+++++ (Selectivity ≥ 100)” and the 50% inhibitory concentration (IC50) is less than 50 nM. Further, in assay [2], the half-inhibitory concentration (IC50) was in the range of 500 to 5000 nM.

Take `O=C(Cc1ccc(-c2ccccc2)cc1)N[C@H](Cc1coc2ccccc12)B(O)O` [Compound No. 69, [(1S)-2-(benzofuran-3-yl)-1-[[2-(4-phenylphenyl)acetyl]amino]ethyl]-boronic acid]: in assay [1], the “Selectivity LMP7 vs Beta5” value is “++ (10 ≤ Selectivity < 50)” and the IC50 lay within 50 to 500 nM. Besides, in assay [2], the IC50 lay in the range of 500 to 5000 nM.

For `COc1ccc(CC(C(=O)N[C@@H](Cc2coc3ccccc23)B(O)O)c2ccccc2)cc1` (stereo partly drawn) [Compound No. 71, [(1R)-2-(benzofuran-3-yl)-1-[[3-(4-methoxyphenyl)-2-phenyl-propanoyl]amino]ethyl]boronic acid], in assay [1], the “Selectivity LMP7 vs Beta5” value is listed as “++++ (70 ≤ Selectivity < 100)” and the IC50 is less than 50 nM. In assay [2], this molecule had an IC50 of 500 to 5000 nM.
